Laboratory results from US20230093099A1, “COMPOUNDS AND METHODS OF TREATING CANCERS” (CULLGEN (SHANGHAI), INC., priority 2019, published 2023).

System: RS4;11 cells
Test: Cell viability assay (CellTiter-Glo) in RS4;11 cells
Format: cell-based
Conditions: Homo sapiens, 72 h; RS4;11 ALL cells treated for three days; read-out: cell viability inhibition IC50
Method in brief: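 RS4;11 cells seeded at 5000 per well, exposed for 3 days to 8- or 12-point 3-fold serial dilutions. Viability read by CellTiter-Glo luminescence; IC50 fitted by nonlinear least-squares regression.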

IC50 | SMILES
< 0.1 µM | CS(=O)(=O)c1ccc(-c2cccc3nc(Nc4ccc(N5CCN(C(=O)CCCCNc6ccc7c(c6)C(=O)N(C6CCC(=O)NC6=O)C7=O)CC5)cc4)nn23)cc1 (centres unmarked) [JA-196, 2-(2,6-dioxopiperidin-3-yl)-5-((5-(4-(4-((5-(4-(methylsulfonyl)phenyl)-[1,2,4]triazolo[1,5-a]pyridin-2-yl)amino)phenyl)piperazin-1-yl)-5-oxopentyl)amino)isoindoline-1,3-dione]

Same assay, conditions: Homo sapiens, 72 h; RS4;11 cells; cell viability, 3 days, CellTiter-Glo; read-out: IC50

SMILES | IC50
Cc1cnc(Nc2ccc(N3CCN(C(=O)CCOCCOCCNc4cccc5c4C(=O)N(C4CCC(=O)NC4=O)C5=O)CC3)cc2)nc1Nc1cccc(S(=O)(=O)NC(C)(C)C)c1 (centres unmarked) [JA-018, N-(tert-Butyl)-3-((2-((4-(4-(3-(2-(2-((2-(2,6-dioxopiperidin-3-yl)-1,3-dioxoisoindolin-4-yl)amino)ethoxy)ethoxy)propanoyl)piperazin-1-yl)phenyl)amino)-5-methylpyrimidin-4-yl)amino)benzenesulfonamide] | > 10 µM
Cn1c(=O)n(C2CCC(=O)NC2=O)c2ccc(NCCCCCCC(=O)N3CCN(c4ccc(Nc5nc6cccc(-c7ccc(S(C)(=O)=O)cc7)n6n5)cc4)CC3)cc21 (centres unmarked) [JA-293, 3-(3-Methyl-5-((7-(4-(4-((5-(4-(methylsulfonyl)phenyl)-[1,2,4]triazolo[1,5-a]pyridin-2-yl)amino)phenyl)piperazin-1-yl)-7-oxoheptyl)amino)-2-oxo-2,3-dihydro-1H-benzo[d]imidazol-1-yl)piperidine-2,6-dione] | > 0.5 µM
Cn1c(=O)n(C2CCC(=O)NC2=O)c2ccc(NCCCCCCC(=O)N3CCC(n4cc(-c5cnc6cccc(-c7cc(F)c(CN8CCOCC8)c(F)c7)c6n5)cn4)CC3)cc21 (centres unmarked) [JA-289, 3-(5-((7-(4-(4-(8-(3,5-Difluoro-4-(morpholinomethyl)phenyl)quinoxalin-2-yl)-1H-pyrazol-1-yl)piperidin-1-yl)-7-oxoheptyl)amino)-3-methyl-2-oxo-2,3-dihydro-1H-benzo[d]imidazol-1-yl)piperidine-2,6-dione] | > 0.5 µM
CS(=O)(=O)c1ccc(-c2cccc3nc(Nc4ccc(N5CCN(C(=O)CCCCCNc6cccc7c6C(=O)N(C6CCC(=O)NC6=O)C7=O)CC5)cc4)nn23)cc1 (centres unmarked) [JA-013, 2-(2,6-Dioxo-piperidin-3-yl)-4-[6-(4-{4-[5-(4-methanesulfonyl-phenyl)-[1,2,4]triazolo[1,5-a]pyridin-2-ylamino]-phenyl}-piperazin-1-yl)-6-oxo-hexylamino]-isoindole-1,3-dione] | > 10 µM
CS(=O)(=O)c1ccc(-c2cccc3nc(Nc4ccc(N5CCN(CC(=O)NCCCCNc6ccc7c(c6)C(=O)N(C6CCC(=O)NC6=O)C7=O)CC5)cc4)nn23)cc1 (centres unmarked) [JA-205, N-(4-((2-(2,6-Dioxopiperidin-3-yl)-1,3-dioxoisoindolin-5-yl)amino)butyl)-2-(4-(4-((5-(4-(methylsulfonyl)phenyl)-[1,2,4]triazolo[1,5-a]pyridin-2-yl)amino)phenyl)piperazin-1-yl)acetamide] | 0.676 µM
CS(=O)(=O)c1ccc(-c2cccc3nc(Nc4ccc(N5CCN(C(=O)CCCCNc6ccc7c(c6)C(=O)N(C6CCC(=O)NC6=O)C7=O)CC5)cc4)nn23)cc1 (centres unmarked) [JA-196, 2-(2,6-dioxopiperidin-3-yl)-5-((5-(4-(4-((5-(4-(methylsulfonyl)phenyl)-[1,2,4]triazolo[1,5-a]pyridin-2-yl)amino)phenyl)piperazin-1-yl)-5-oxopentyl)amino)isoindoline-1,3-dione] | 0.107 µM
CS(=O)(=O)c1ccc(-c2cccc3nc(Nc4ccc(N5CCN(CC(=O)NCCCNc6cccc7c6C(=O)N(C6CCC(=O)NC6=O)C7=O)CC5)cc4)nn23)cc1 (centres unmarked) [JA-111, N-(3-((2-(2,6-Dioxopiperidin-3-yl)-1,3-dioxoisoindolin-4-yl)amino)propyl)-2-(4-(4-((5-(4-(methylsulfonyl)phenyl)-[1,2,4]triazolo[1,5-a]pyridin-2-yl)amino)phenyl)piperazin-1-yl)acetamide] | > 10 µM
Cc1cnc(Nc2ccc(N3CCN(C(=O)CCCCCCCNc4cccc5c4C(=O)N(C4CCC(=O)NC4=O)C5=O)CC3)cc2)nc1Nc1cccc(S(=O)(=O)NC(C)(C)C)c1 (centres unmarked) [JA-016, N-(tert-Butyl)-3-((2-((4-(4-(8-((2-(2,6-dioxopiperidin-3-yl)-1,3-dioxoisoindolin-4-yl)amino)octanoyl)piperazin-1-yl)phenyl)amino)-5-methylpyrimidin-4-yl)amino)benzenesulfonamide] | > 10 µM
CS(=O)(=O)c1ccc(-c2cccc3nc(Nc4ccc(N5CCN(CC(=O)NCCNc6cccc7c6C(=O)N(C6CCC(=O)NC6=O)C7=O)CC5)cc4)nn23)cc1 (centres unmarked) [JA-117, N-(2-((2-(2,6-Dioxopiperidin-3-yl)-1,3-dioxoisoindolin-4-yl)amino)ethyl)-2-(4-(4-((5-(4-(methylsulfonyl)phenyl)-[1,2,4]triazolo[1,5-a]pyridin-2-yl)amino)phenyl)piperazin-1-yl)acetamide] | 1.44 µM
Cc1ncsc1-c1ccc(CNC(=O)[C@@H]2C[C@@H](O)CN2C(=O)[C@@H](NC(=O)CCCCCC(=O)N2CCC(n3cc(-c4cnc5cccc(-c6cc(F)c(CN7CCOCC7)c(F)c6)c5n4)cn3)CC2)C(C)(C)C)cc1 [JA-048, (2S,4R)-1-[(2S)-2-[[7-[4-[4-[8-[3,5-Difluoro-4-(morpholinomethyl)phenyl]quinoxalin-2-yl]pyrazol-1-yl]-1-piperidyl]-7-oxo-heptanoyl]amino]-3,3-dimethyl-butanoyl]-4-hydroxy-N-[[4-(4-methylthiazol-5-yl)phenyl]methyl]pyrrolidine-2-carboxamide] | > 10 µM
O=C(CN1CCC(n2cc(-c3cnc4cccc(-c5cc(F)c(CN6CCOCC6)c(F)c5)c4n3)cn2)CC1)NCCOCCOCCNc1ccc2c(c1)C(=O)N(C1CCC(=O)NC1=O)C2=O (centres unmarked) [JA-170, 2-(4-(4-(8-(3,5-Difluoro-4-(morpholinomethyl)phenyl)quinoxalin-2-yl)-1H-pyrazol-1-yl)piperidin-1-yl)-N-(2-(2-(2-((2-(2,6-dioxopiperidin-3-yl)-1,3-dioxoisoindolin-5-yl)amino)ethoxy)ethoxy)ethyl)acetamide] | > 10 µM

Second part, the compound after the results:

IC50 | SMILES
> 10 µM | CS(=O)(=O)c1ccc(-c2cccc3nc(Nc4ccc(N5CCN(CC(=O)NCCOCCOCCOCCNc6cccc7c6C(=O)N(C6CCC(=O)NC6=O)C7=O)CC5)cc4)nn23)cc1 (centres unmarked) [JA-127, N-(2-(2-(2-(2-((2-(2,6-Dioxopiperidin-3-yl)-1,3-dioxoisoindolin-4-yl)amino)ethoxy)ethoxy)ethoxy)ethyl)-2-(4-(4-((5-(4-(methylsulfonyl)phenyl)-[1,2,4]triazolo[1,5-a]pyridin-2-yl)amino)phenyl)piperazin-1-yl)acetamide]
> 10 µM | Cc1ncsc1-c1ccc(CNC(=O)[C@@H]2C[C@@H](O)CN2C(=O)[C@@H](NC(=O)CCOCCOCCOCCOCCNC(=O)CN2CCN(c3ccc(Nc4nc5cccc(-c6ccc(S(C)(=O)=O)cc6)n5n4)cc3)CC2)C(C)(C)C)cc1 [JA-133, (2S,4R)-1-((S)-20-(tert-Butyl)-1-(4-(4-((5-(4-(methylsulfonyl)phenyl)-[1,2,4]triazolo[1,5-a]pyridin-2-yl)amino)phenyl)piperazin-1-yl)-2,18-dioxo-6,9,12,15-tetraoxa-3,19-diazahenicosan-21-oyl)-4-hydroxy-N-(4-(4-methylthiazol-5-yl)benzyl)pyrrolidine-2-carboxamide]
> 10 µM | Cc1cnc(Nc2ccc(N3CCN(C(=O)CCCC(=O)N[C@H](C(=O)N4C[C@H](O)C[C@H]4C(=O)NCc4ccc(-c5scnc5C)cc4)C(C)(C)C)CC3)cc2)nc1Nc1cccc(S(=O)(=O)NC(C)(C)C)c1 [JA-023, (2S,4R)-1-((S)-2-(5-(4-(4-((4-((3-(N-(tert-Butyl)sulfamoyl)phenyl)amino)-5-methylpyrimidin-2-yl)amino)phenyl)piperazin-1-yl)-5-oxopentanamido)-3,3-dimethylbutanoyl)-4-hydroxy-N-(4-(4-methylthiazol-5-yl)benzyl)pyrrolidine-2-carboxamide]
> 10 µM | Cc1cnc(Nc2ccc(N3CCN(CC(=O)NCCOCCOCCOCCOCCC(=O)NC(C(=O)N4C[C@H](O)C[C@H]4C(=O)NCc4ccc(-c5scnc5C)cc4)C(C)(C)C)CC3)cc2)nc1Nc1cccc(S(=O)(=O)NC(C)(C)C)c1 (stereo in doubt) [JA-222, (2S,4R)-1-((S)-20-(tert-butyl)-1-(4-(4-((4-((3-(N-(tert-butyl)sulfamoyl)phenyl)amino)-5-methylpyrimidin-2-yl)amino)phenyl)piperazin-1-yl)-2,18-dioxo-6,9,12,15-tetraoxa-3,19-diazahenicosan-21-oyl)-4-hydroxy-N-(4-(4-methylthiazol-5-yl)benzyl)pyrrolidine-2-carboxamide]
> 10 µM | Cc1ncsc1-c1ccc(CNC(=O)[C@@H]2C[C@@H](O)CN2C(=O)[C@@H](NC(=O)CCNC(=O)CN2CCC(n3cc(-c4cnc5cccc(-c6cc(F)c(CN7CCOCC7)c(F)c6)c5n4)cn3)CC2)C(C)(C)C)cc1 [JA-155, (2S,4R)-1-((S)-2-(3-(2-(4-(4-(8-(3,5-Difluoro-4-(morpholinomethyl)phenyl)quinoxalin-2-yl)-1H-pyrazol-1-yl)piperidin-1-yl)acetamido)propanamido)-3,3-dimethylbutanoyl)-4-hydroxy-N-(4-(4-methylthiazol-5-yl)benzyl)pyrrolidine-2-carboxamide]
0.241 µM | CS(=O)(=O)c1ccc(-c2cccc3nc(Nc4ccc(N5CCN(C(=O)CCOCCOCCNc6ccc7c(c6)C(=O)N(C6CCC(=O)NC6=O)C7=O)CC5)cc4)nn23)cc1 (centres unmarked) [JA-201]
> 10 µM | Cc1ncsc1-c1ccc(CNC(=O)[C@@H]2C[C@@H](O)CN2C(=O)[C@@H](NC(=O)COCCOCCNC(=O)CN2CCC(n3cc(-c4cnc5cccc(-c6cc(F)c(CN7CCOCC7)c(F)c6)c5n4)cn3)CC2)C(C)(C)C)cc1 [JA-163, (2S,4R)-1-((S)-2-(tert-Butyl)-14-(4-(4-(8-(3,5-difluoro-4-(morpholinomethyl)phenyl)quinoxalin-2-yl)-1H-pyrazol-1-yl)piperidin-1-yl)-4,13-dioxo-6,9-dioxa-3,12-diazatetradecanoyl)-4-hydroxy-N-(4-(4-methylthiazol-5-yl)benzyl)pyrrolidine-2-carboxamide]
> 10 µM | Cc1cnc(Nc2ccc(N3CCN(CC(=O)NCCCCCCCCC(=O)N[C@H](C(=O)N4C[C@H](O)C[C@H]4C(=O)NCc4ccc(-c5scnc5C)cc4)C(C)(C)C)CC3)cc2)nc1Nc1cccc(S(=O)(=O)NC(C)(C)C)c1 [JA-104, (2S,4R)-1-((S)-2-(9-(2-(4-(4-((4-((3-(N-(tert-Butyl)sulfamoyl)phenyl)amino)-5-methylpyrimidin-2-yl)amino)phenyl)piperazin-1-yl)acetamido)nonanamido)-3,3-dimethylbutanoyl)-4-hydroxy-N-(4-(4-methylthiazol-5-yl)benzyl)pyrrolidine-2-carboxamide]
